This is an account of results in paper PMC12591170, “Glabridin‐Gold(I) Complex as a Novel Immunomodulatory Agent Targeting TrxR and MAPK Pathways for Synergistic Enhancement of Antitumor Immunity” (Advanced Science, 2025).

A word on the IC50: it is the concentration that inhibits the measured activity by half. A low value points to greater potency. One may read the half-life as the time needed for the level to fall by half in the phase considered. The share remaining is what is left of the initial amount, in per cent. Read a low share remaining as a greater loss.

Data set [1] has as its system PD-L1. The data set can be described thus: In vivo PD-L1 expression in tumor tissue. Further details: species or system C57BL/6 mice. The settings on record: western blot, 13 days of treatment. For orientation: Immunoblotting shows a protein as a band on a membrane.
The test system of data set [2] is MAPK pathway (phosphorylated MEK1/2 and ERK1/2). In words: In vivo MAPK pathway in tumor tissue. Further details: species or system C57BL/6 mice. The settings on record: western blot, day 13.
Another data set has as its system Hepa1-6 tumors. In words: In vivo antitumor assay, Hepa1-6 tumors. Also on record: species or system C57BL/6 mice. Particulars: after 13 days; 6d and OXA 5 mg kg^−1, GLA 10 mg kg^−1, i.p. every two days.
The subject of data set [3] is PD-L1. In words: PD-L1 expression in HepG2 (western blot, immunofluorescence, flow cytometry). It is filed as cell-based, human. The settings on record: HepG2, 24 h. The protocol: (§1) HepG2 cells were incubated in 6 cm culture dishes and treated with different complexes. The treated cells were lysed with lysis buffer (RIPA:PMSF:phosphatase inhibitor:protease inhibitor = 100:1:1:1). The lysed cells were further broken by sonication, and proteins were isolated by centrifugation. The protein concentrations were detected by BCA assay. 10% SDS PAGE gel was usually applied to separate the different kDa of proteins, and more than 200 kDa of proteins were separated using 8% SDS PAGE gel. After seperation, proteins were transferred onto polyvinylidene difluoride (PVDF) membranes. The target proteins were labeled by various specific primary antibodies at 4 °C overnight. Then, the membranes were treated with anti‐rabbit or anti‐mouse secondary antibody for 2 h. Tris buffered saline with tween 20 (TBST) was applied to wash the membranes after each operation above. The target proteins’ bands were detected by the enhanced chemiluminescence (ECL) procedure.
5 × 10^4 HepG2 cells were treated with complexes in 24‐well plates for 24 h. Subsequently, cells were fixed with 4% paraformaldehyde. Various specific antibodies were added for incubation at 4 °C overnight after cells were permeabilized with Triton X‐100 (except for membrane proteins) and blocked with BSA. Then, the cells were incubated with fluorescently‐labeled secondary antibodies in darkness for 2 h. After that, DAPI was added to stain nuclear in darkness. PBS was applied for washing after each operation above (Tris buffered saline (TBS) was applied for washing if phosphorylated protein was analyzed). The cell images were captured by the fluorescence microscopy.
4 × 10^5 HepG2 cells were incubated in 6‐well plates, and complexes were added in the wells. The cells were collected after incubation, and the treated cells were labeled with probes or fluorescently‐labeled antibodies. A flow cytometer was applied to analyze the labeled cells.

Data set [4] has as its system immune cells in Hepa1-6 tumor and spleen tissue. In words: In vivo immune cell and marker analysis (flow cytometry, immunofluorescence, immunohistochemistry). Also on record: species or system C57BL/6 mice. The settings on record: for DC maturation in spleen and tumor tissues / macrophage polarization in tumor: flow cytometry and immunofluorescence; for T lymphocyte infiltration in tumor: flow cytometry and immunohistochemistry; for MDSC infiltration in tumor / Treg infiltration in tumor (Foxp3): vs model group, 13 days. For orientation: A flow cytometer gives signals particle by particle.

The test system of the next data set is HepG2 cells. In words: MTT antiproliferative assay, HepG2. Particulars: 72 h MTT assay, Mean ± SD. It is filed as cell-based, human. How it is done: (§2) All cells were incubated at 37 °C by DMEM complete medium (containing 1% penicillin−streptomycin and 12% FBS) in 5% CO2 incubator. 2–5 × 10^3 cells were cultured in 96‐well plates and each well contained 100 µL complete medium. OXA was dissolved in water, and all other complexes were dissolved in DMF. After cells adhered in the wells, different concentrations of complexes were diluted in 100 µL complete medium and added in the wells. The final volume in the each well was 200 µL and the content of DMF was maximum 0.5%. After 72 h incubation, the antiproliferative activity was tested by MTT assay.
Background: Tetrazolium assays rely on reduction of a dye to a coloured formazan, in cell work by metabolically active cells.

Data set [5] relates to MAPK pathway (phosphorylated MEK1/2 and ERK1/2). The data set can be described thus: Western blot of MAPK pathway in HepG2. It is filed as cell-based, human. Particulars: HepG2, 24 h. The protocol:
as §1

On the set-up of data set [6]: method as in PMID 30146723. The settings on record: antitumor activity; cited from earlier work.
Data set [7] can be described thus: In vivo tolerability (body weight, survival, organ H&E). How it is done: All mice were 6–8 weeks old males and procured from Hangzhou Medical College, located in Hangzhou, China. […] 2 × 10^6 Hepa1‐6 cells in 100 µL DMEM were subcutaneously seeded in underarms of C57BL/6 mice. […] Meanwhile, the mice weights and tumor volume were recorded, and the calculation formula of tumor volume was Volume = Width^2 × Length/2. After 13 days, all mice were sacrificed for collection of tumors, hearts, livers, spleens, lungs and kidneys. Collagenase IV (1 mg mL^−1) and DNase I (1 µg mL^−1) were applied to digest a part of the tumor tissue into cell suspension, and lysis buffer was used to remove red blood cells. The prepared cells above were stained with antibodies (anti‐CD3e‐FITC, and anti‐CD8a‐PE; anti‐CD11c‐APC, anti‐CD80‐PE, and anti‐CD86‐FITC; anti‐CD45‐Percp, anti‐CD11b‐APC, and anti‐Ly‐6G/Ly‐6C(Gr‐1)‐FITC; anti‐CD11b‐APC, anti‐CD206‐PE, and CD86‐FITC). CD3^+CD8^+ T cells, CD80^+CD86^+ DCs, CD11b^+Gr‐1^+ MDSCs, CD206^−CD86^+ M1‐type macrophages and CD206^+CD86^− M2‐type macrophages were analyzed by flow cytometry. Then, another part of tumor tissues were fixed with 4% paraformaldehyde, embedded in paraffin, cut into slices and stained with antibodies for immunofluorescence and immunohistochemistry analysis. H&E stain assays were applied for all tissue samples.

A further data set concerns Hepa1-6 cells. In words: MTT antiproliferative assay, Hepa1-6. Particulars: Mus musculus, Hepa1-6; 72 h MTT assay, Mean ± SD. The data set is classed as cell-based. The protocol:
as §2

The test system of another data set is phosphorylated Akt. In words: Western blot of phosphorylated Akt in HepG2. The data set is classed as cell-based, human. Particulars: HepG2, 24 h; GLA at 8 µM. The protocol: as §1
For a further data set, the system named is 293T cells. In words: MTT assay, normal kidney cell line 293T. The data set is classed as cell-based. The settings on record: Homo sapiens, HEK-293T; 72 h MTT assay, Mean ± SD. How it is done:
as §2

Data set [8] can be described thus: Metabolic stability in whole blood. The settings on record: mouse.
A short description of data set [9]: Stability analysis by 1H NMR. The data set is classed as physicochemical. The protocol: 5 mM of complex 6d was incubated with DMSO‐d6 or the mixed solution (DMSO‐d6 /D2O = 9:1) or the same mixed solution with 5 mM of GSH for different times (0 – 72 h), and the ^1H NMR spectra were acquired. The stability of AF was determined by the same method.
Another data set concerns HIF-1α. In words: Western blot of HIF-1α in HepG2. It is filed as cell-based, human. The settings on record: HepG2, 24 h. The protocol:
as §1

Regarding `O=C1[O][Pt]2([NH][C@@H]3CCCC[C@H]3[NH]2)[O]C1=O` [OXA, oxaliplatin], in the data set on PD-L1 [1], the “PD-L1 expression in tumor tissue” value is recorded as “upregulated”. For the same compound, in data set [2], the “MAPK pathway activation (phosphorylation of MEK1/2 and ERK1/2) in tumor tissue” value was “promoted the phosphorylation”. Besides, the “tumor growth vs model group” value with Hepa1-6 tumors is “significant tumor growth inhibition”. Also, in the data set with PD-L1 [3], the “PD-L1 expression (western blot)” value is “did not affect”. In data set [4], the “DC maturation in spleen and tumor tissues” value is on record as “induced DC maturation”; the “macrophage polarization in tumor” value is reported as “promoted M2‐type polarization”; the “T lymphocyte infiltration in tumor” value is recorded as “promoted T lymphocyte infiltration”; the “MDSC infiltration in tumor” value was “higher level of MDSC infiltration”. Moreover, the “Treg infiltration in tumor (Foxp3)” value in data set [4] is “higher number of infiltrated Tregs”. Moreover, in [4] (immunofluorescence), the “Arg-1 expression in tumor tissue” value is reported as “promoted the expression” and the “CRT exposure in tumor tissue” value is on record as “promoted CRT exposure”. Besides, the “GzmB expression in tumor tissue” value in data set [4] (immunofluorescence, OXA vs model group, 6d vs OXA group) is “did not increase obviously”. Further, in the data set on HepG2 cells, the IC50 was determined as 4.08 ± 0.97 µM. The “phosphorylation of MEK1/2 and ERK1/2 (western blot)” value in data set [5] is recorded as “no effect”.
Regarding `CC1(C)C=Cc2c(ccc3c2OC[C@@H](c2ccc(O)cc2O)C3)O1` [GLA, glabridin], the “MAPK pathway activation (phosphorylation of MEK1/2 and ERK1/2) in tumor tissue” value in data set [2] was “significantly inhibited”. Moreover, in the data set with Hepa1-6 tumors, the “tumor growth vs model group” value is “did not show an obvious effect on tumor growth”. Further, the “PD-L1 expression (western blot)” value with PD-L1 [3] is given as “did not exhibit this effect”. Besides, the “suggested minimum effective dose” value in data set [6] is 10 mg/kg. Further, in data set [7] (6d and OXA 5 mg kg^−1, GLA 10 mg kg^−1, i.p. every two days, OXA after nine days), the “effect on mice body weight” value is reported as “no significant effect”. In addition, the “organ tissue damage (H&E staining)” value in data set [7] (heart, liver, spleen, lung, kidney, day 13) is “did not cause noticeable damage to organ tissues”. In addition, in data set [4], the “DC maturation in spleen and tumor tissues” value is given as “induced DC maturation”; the “macrophage polarization in tumor” value was “significantly promoted M1‐type macrophage polarization”; the “T lymphocyte infiltration in tumor” value is reported as “did not enhance T lymphocyte infiltration”; the “MDSC infiltration in tumor” value was “reducing the infiltration”. Besides, the “Treg infiltration in tumor (Foxp3)” value in [4] is “reducing the infiltration”. Besides, in data set [4] (immunofluorescence), the “Arg-1 expression in tumor tissue” value is “downregulation” and the “CRT exposure in tumor tissue” value was “did not induce CRT exposure”. The same compound showed an IC50 with Hepa1-6 cells of 37.6 ± 1.73 µM. The “Akt phosphorylation (western blot)” value in the data set on phosphorylated Akt is on record as “did not significantly affect Akt phosphorylation”. In the data set on 293T cells, this compound had an IC50 of 43.4 ± 4.47 µM. Besides, in the data set on HepG2 cells (Homo sapiens, HepG2), the IC50 worked out at 39.5 ± 4.68 µM.
Regarding `CC1(C)C=Cc2c(ccc3c2OC[C@@H](c2ccc(OCCCCCBr)cc2OCCCCCBr)C3)O1` [3b], the IC50 with Hepa1-6 cells is > 20 µM; in the data set with 293T cells, > 20 µM; in the data set with HepG2 cells (Homo sapiens, HepG2) it was > 20 µM.
`CC(C)[N+](C)(CCOC(=O)C1c2ccccc2Oc2ccccc21)C(C)C` [Propantheline bromide]: in [8], the “-k” value stood at 0.0216, the half-life stood at 32.1 min, the amount remaining at 0 h worked out at 100% and the amount remaining at 5 min stood at 88.5%. In data set [8], this compound came in with an amount remaining at 0.25 h of 66%, a fraction remaining at 0.5 h of 47.5%, a share remaining at 1 h of 21.8% and a share remaining at 2 h of 7.63%.
On to `CC(=O)OC[C@H]1O[C@@H]([S-])[C@H](OC(C)=O)[C@@H](OC(C)=O)[C@@H]1OC(C)=O.CCP(CC)CC.[Au+]` [AF, auranofin, reference compound], for which the “stability by 1H NMR” value in [9] is recorded as “remained stable”. The “time after which 1H NMR spectra began to change / showed new peaks” value in data set [9] (5 mM complex, DMSO-d6/D2O 9:1 containing GSH (5 mM)) is reported as 2 h. Moreover, the “PD-L1 expression (western blot)” value with PD-L1 [3] is on record as “upregulation”. Moreover, the “HIF-1α expression (western blot)” value in the data set with HIF-1α was “promoted”. Also, the “Akt phosphorylation (western blot)” value in the data set with phosphorylated Akt is on record as “inhibited Akt phosphorylation”. The IC50 with HepG2 cells worked out at 3.54 ± 0.34 µM. Besides, in data set [5], the “ERK1/2 phosphorylation (western blot, Figure S49)” value is recorded as “significantly enhancing ERK1/2 phosphorylation”.
